The source of these data is patent US6069176A, “Phenylethanolamine compounds useful as β 3 agonists, process for producing the same, and intermediates in the production of the same” (Mitsubishi-Tokyo Pharmaceuticals, Inc., priority 1995, dated 2000).

Data set [1] addresses T1, β3 adrenergic receptor (Rattus norvegicus, UniProt P26255). As to the kind of experiment: [Test 1] spontaneous locomotion-suppressing effect on isolated rat colon (β3 adrenergic receptor stimulating effect). The format is cell-based.
The next data set deals with β2 adrenergic receptor (Cavia porcellus, UniProt Q8K4Z4). As to the kind of experiment: [Test 3] relaxing effect on isolated guinea pig tracheal muscle (β2 adrenergic receptor stimulating effect). The format is cell-based.
Chain of β2 adrenergic receptor (Q8K4Z4 whole entry): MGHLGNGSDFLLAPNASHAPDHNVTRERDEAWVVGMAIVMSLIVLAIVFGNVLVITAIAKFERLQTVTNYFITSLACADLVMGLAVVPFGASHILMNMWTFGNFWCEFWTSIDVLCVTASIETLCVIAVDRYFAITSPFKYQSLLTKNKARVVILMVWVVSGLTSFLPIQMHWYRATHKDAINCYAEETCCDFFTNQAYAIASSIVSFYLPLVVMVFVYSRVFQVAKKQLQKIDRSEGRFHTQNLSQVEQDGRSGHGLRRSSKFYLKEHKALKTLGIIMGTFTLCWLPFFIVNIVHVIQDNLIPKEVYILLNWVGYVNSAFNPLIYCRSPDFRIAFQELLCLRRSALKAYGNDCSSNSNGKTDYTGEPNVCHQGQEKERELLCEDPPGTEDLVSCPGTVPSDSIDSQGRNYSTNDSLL
The target in another data set is T2, β1 adrenergic receptor (Cavia porcellus, UniProt H0W3H1).
T2 construct: functional heart beat increase (chronotropy)
T2 sequence (H0W3H1 1-470): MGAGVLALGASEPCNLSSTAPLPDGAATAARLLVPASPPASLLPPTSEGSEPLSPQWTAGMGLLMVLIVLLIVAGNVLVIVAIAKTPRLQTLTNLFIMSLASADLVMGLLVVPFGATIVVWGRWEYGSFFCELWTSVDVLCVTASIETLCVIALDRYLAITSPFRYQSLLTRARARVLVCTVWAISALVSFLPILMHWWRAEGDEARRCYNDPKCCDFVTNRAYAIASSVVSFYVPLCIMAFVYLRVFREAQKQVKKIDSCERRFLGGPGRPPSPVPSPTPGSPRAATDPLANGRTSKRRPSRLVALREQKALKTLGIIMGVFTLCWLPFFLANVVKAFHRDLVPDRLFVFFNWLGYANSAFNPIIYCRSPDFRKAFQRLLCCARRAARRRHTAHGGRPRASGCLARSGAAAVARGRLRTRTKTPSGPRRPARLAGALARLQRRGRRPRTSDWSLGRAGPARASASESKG
As to the kind of experiment: [Test 4] heart beat increasing effect on isolated guinea pig right atrium (β1 adrenergic receptor stimulating effect). To be noted: read-out: EC10 (heart beat increasing effect on isolated guinea pig right atrium). Format: cell-based.

In data set [2] the test system is isolated rat bladder detrusor muscle. As to the kind of experiment: [Test 5] relaxing effect on isolated rat bladder detrusor muscle (smooth muscle). The format is cell-based. The note with it: read-out: EC50 (relaxing effect on isolated rat bladder detrusor muscle). The protocol:
[Test 5] Examination of relaxing effect on isolated rat bladder detrusor muscle (smooth muscle)
Rat bladders were isolated by a common method for preparation of strips. The isolated bladder strips were mounted in an organ bath filled with Krebs' solution kept at 37° C., under mixed gas aeration (95% O2 +5% CO2) and subjected to an initial tension of 1.0 g. Each test compound was cumulatively added to the organ bath at intervals of 10 minutes.

In data set [3] the test system is rat colon. As to the kind of experiment: [Test 6] suppressing effect on spontaneous locomotion of anesthetized rat colon (in vivo test). Set-up: species or system rat (male Wistar rats). The note with it: iv, 10 min, read-out: ED50 (suppressing effect on spontaneous locomotion of anesthetized rat colon). The protocol: [Test 6] […] The lead wire of the force transducer was connected to a multipurpose preamp through a bridge box (FB-01, Star Medical), and the spontaneous locomotion of the colon was recorded with a Thermal Array Recorder (Nihon Koden), upon which the total degrees of contraction over 10 minutes were compared before and after bolus administration.

For data set [4], the system named is rat confinement stress-induced diarrhea models. As to the kind of experiment: [Test 7] suppression of diarrhea in rat confinement stress-induced diarrhea models. The format is in vivo, rat (male Wistar rats). To be noted: po, 1.0 mg/kg; feces observed over 3 hours.
Description: Examination of suppressing effect on diarrhea using rat confinement stress-induced diarrhea models
The nature of the feces excreted over a total of 3 hours was observed every 30 minutes, and the results were recorded as the diarrhea coefficient (0: no fecal excretion, 1: solid feces, 2: soft feces, 3: mild diarrhea, 4: muddy feces). Here, cases with a diarrhea coefficient score of 3 or higher, i.e. from feces which left a stain on filter paper to muddy feces, were judged as diarrhea, and the rate of diarrhea suppression was calculated (Table 6).
Another data set deals with rat bladder. As to the kind of experiment: [Test 9] bladder contraction induced by electrical stimulation of peripheral end of pelvic nerve in anesthetized rat. Format: in vivo. The note with it: through femoral vein; 20 Hz, 0.3 msec, 5V; urethane and α-chloralose anesthesia. From the text: [Test 9] Effect on bladder contraction induced by electrical stimulation of peripheral end of pelvic nerve in anesthetized rat
After median incision in the abdomen of rats anesthetized with urethane and α-chloralose, the ureters on both sides were ligated and cut on the kidney side, and pledgets were placed on the cut sections to absorb the urine. Next, the hypogastric nerves on both sides were transected and the base of the penis were ligated at close the urethra. A small hole was opened in the top of bladder and, after inserting one end of a polyethylene tube, ligated. The other end of the polyethylene tube was connected to a pressure transducer (TP 400, Nihon Koden) to measure the intravesical pressure.
Physiological saline was injected into the bladder to obtain intravesical pressure at a 100 mm H2 O. The change of the intervesical pressure was recorded with a heat recorder (WT 685G, Nihon Koden). After ablating the left pelvic nerves from the fatty tissue around the bladder and cutting the central section, a platinum electrode was implanted at the peripheral end of the pelvic nerves. An electrical stimulation apparatus (SEN-3301, Nihon Koden) was used for generating a rectangular wave electrical stimulation (20 Hz, 0.3 msec, 5V) for 5 seconds every 5 minutes. […]

The target of data set [5] is T1, β3 adrenergic receptor. As to the kind of experiment: cell-based. The note with it: rat adipocyte suspension, 30 minutes at 30° C., glycerol content; read-out: lypolytic activity (EC50 value). Details: Isolated rat fat was used to examine the effect on fat decomposition; from tissue; host or cells: adipocytes from fat around the testicles of male SD rats; species or system rat (male SD rats).

A further data set has as its system β3 adrenergic receptors. The note with it: prior art; cited from earlier work.
Data set [6] concerns rat colon. To be noted: Drugs of the Future, 18, 529-549 (1993); cited from earlier work.
For data set [7] the following is noted: Drugs of the Future, 18, 529-549 (1993); cited from earlier work.
The subject of a further data set is bladder detrusor muscle. The note with it: The autonomic nervous system, 26, 380-387 (1989); cited from earlier work.
For data set [8] the following is noted: treatment for urinary incontinence; cited from earlier work.
Setting [9] is: 10% augmentation of heart beats, 37° C.

Counter-ions that a name gives are not always drawn. Like-named read-outs stand apart in the source and are kept apart here.

T1 sequence (P26255 whole entry): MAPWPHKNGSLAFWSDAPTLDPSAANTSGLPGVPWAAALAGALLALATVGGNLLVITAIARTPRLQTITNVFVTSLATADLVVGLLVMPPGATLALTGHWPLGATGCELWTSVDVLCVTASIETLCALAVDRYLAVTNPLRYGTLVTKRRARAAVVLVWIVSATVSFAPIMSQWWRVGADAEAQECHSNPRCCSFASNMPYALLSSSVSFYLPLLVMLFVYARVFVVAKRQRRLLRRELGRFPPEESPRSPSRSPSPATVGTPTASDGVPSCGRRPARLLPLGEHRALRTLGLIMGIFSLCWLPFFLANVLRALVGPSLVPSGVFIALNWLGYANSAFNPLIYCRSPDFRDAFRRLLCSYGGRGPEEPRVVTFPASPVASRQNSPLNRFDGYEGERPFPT
Description for β1 adrenergic receptor: [Test 4] β1 adrenergic receptor stimulating effect
Isolated guinea pig right atrium strips were used to examine the heart beat increasing effect. Guinea pig right atriums were isolated by a common method, mounted in an organ bath filled with a nutrient medium (Krebs' buffer, 0.03 mM ascorbic acid, 0.03 mM EDTA, 10 M M phenanthramine) maintained at 37° C., gassed with 95% O2 and 5% CO2, and maintained at an initial tension of 0.5g, after which the cardiac contractile force and heart beats were recorded with a recorder.

On to `O=C([O-])COc1cccc(C2CCCC(NC[C@H](O)c3cccc(Cl)c3)C2)c1.[Na+]` (stereo partly shown), for which the EC50 at β3 adrenergic receptor [1] is 1.4 nM; on β2 adrenergic receptor, 4200 nM; in data set [2] it was 16 nM; at β3 adrenergic receptor [5], 21 nM. Besides, the concentration for an effect of 10% (EC10) at β1 adrenergic receptor is more than 30 µM. In addition, in the data set with rat colon [3], the ED50 was 0.27 µg/kg. The molecule further registered a diarrhea suppression rate in [4] of 60%. Also, the “suppression of bladder contraction (FIG. 2)” value in the data set on rat bladder is recorded as “suppressed bladder contraction at a lower dose than Clenbuterol hydrochloride”.

As for `O=C([O-])COc1ccccc1C1CCCC(NC[C@H](O)c2cccc(Cl)c2)C1.[Na+]` (stereo partly shown), the EC50 was 3.3 nM at β3 adrenergic receptor [1] and 890 nM at β2 adrenergic receptor. Also, the 10% effect concentration (EC10) on β1 adrenergic receptor was more than 30 µM. Further, in data set [4], the diarrhea suppression rate was 30%.

For the molecule `CCOC(=O)COc1ccc2c(c1)CC(NCC(O)c1cccc(Cl)c1)CC2.Cl` (racemic) [SR 58611A, (RS)-N-(7-ethoxycarbonylmethoxy-1,2,3,4-tetrahydronaphth-2-yl)-2-(3-chlorophenyl)-2-hydroxyethanamine hydrochloride, reference compound], the EC50 on β3 adrenergic receptor [1] amounted to 7.7 nM; on β2 adrenergic receptor, 14000 nM. The 10% effect concentration (EC10) on β1 adrenergic receptor (setting [9]) was more than 30 µM. Moreover, in the data set on rat colon [3], the ED50 amounted to 12 µg/kg. In data set [4], the diarrhea suppression rate was 20%. Moreover, in the data set on β3 adrenergic receptors, the “selective action on β3 adrenergic receptors” value is “act selectively on β3 adrenergic receptors”. Moreover, in the data set on rat colon [6], the “suppressing effect on spontaneous locomotion of rat colon” value was “potent suppressing effect on spontaneous locomotion of rat colon”.

Consider `COC(=O)COc1ccc(C[C@@H](C)NC[C@H](O)c2cccc(Cl)c2)cc1` (relative stereo) [BRL35135, (R*R*)-(±)-[4-[2-[2-(3-chlorophenyl)-2-hydroxyethylamino]propyl]phenoxy]acetic acid methyl ester hydrobromide salt], for which the “selective action on β3 adrenergic receptors” value in the data set with β3 adrenergic receptors was “act selectively on β3 adrenergic receptors”. The “lypolytic and hypoglycemic effect” value in [7] is “lypolytic and hypoglycemic effect”.

On to `O=C(O)COc1ccc(C2CCCC(NC[C@H](O)c3cccc(Cl)c3)C2)cc1` (single isomer, unassigned) [Example 32, acetate], for which the EC50 at β3 adrenergic receptor [1] is 12 nM; at β2 adrenergic receptor it was 15000 nM. For the same molecule, the concentration for an effect of 10% (EC10) at β1 adrenergic receptor (setting [9]) is more than 30 µM.

`CC(C)(C)NCC(O)c1cc(Cl)c(N)c(Cl)c1` (stereo not shown) [Clenbuterol]: in [2], the concentration giving a half-maximal response (EC50) was 31 nM. In the data set on bladder detrusor muscle, the “relaxing effect on the bladder detrusor muscle” value was “relaxing effect on the bladder detrusor muscle”. For the same molecule, the side-effects entry in [8] is “side-effects including finger tremor and palpitation”.

With `CCOC(=O)COc1cccc(C2CCCC(NC[C@H](O)c3cccc(Cl)c3)C2)c1` (stereo partly drawn) [Example 11, (1R)-1-(3-Chlorophenyl)-2-[3-(3-ethoxycarbonylmethoxyphenyl)cyclohexylamino]ethanol hydrochloride], the EC50 at β3 adrenergic receptor [1] is 3.7 nM; at β2 adrenergic receptor, 790 nM. For the same molecule, the EC10 at β1 adrenergic receptor (setting [9]) was more than 30 µM. For the same molecule, the ED50 in the data set with rat colon [3] was 0.23 µg/kg.

`CCOC(=O)COc1cccc(C2CCCC(NC[C@H](O)c3cccc(Cl)c3)C2)c1` (stereo partly drawn) [Example 14, (1R)-1-(3-Chlorophenyl)-2-[3-(3-ethoxycarbonylmethoxyphenyl)cyclohexylamino]ethanol] came in with a diarrhea suppression rate in data set [4] of 50%.

Turning to `CCOC(=O)COc1ccc(C2CCCC(NC[C@H](O)c3cccc(Cl)c3)C2)cc1` (stereo partly drawn) [Example 28, (1R)-1-(3-Chlorophenyl)-2-[3-(4-ethoxycarbonylmethoxyphenyl)cyclohexylamino]ethanol hydrochloride], the concentration for a half-maximal effect (EC50) came to 15 nM at β3 adrenergic receptor [1] and 1100 nM on β2 adrenergic receptor.

With `CCOC(=O)COc1ccccc1C1CCCC(NC[C@H](O)c2cccc(Cl)c2)C1` (stereo partly drawn) [Example 43, (1R)-(3-Chlorophenyl)-2-[3-(2-ethoxycarbonylmethoxyphenyl)cyclohexylamino]ethanol hydrochloride], the half-maximal effective concentration (EC50) on β3 adrenergic receptor [1] was determined as 3.8 nM; at β2 adrenergic receptor, 820 nM. The 10% effect concentration (EC10) at β1 adrenergic receptor (setting [9]) is more than 30 µM. For the same molecule, in [4], the diarrhea suppression rate is listed as 50%.

`CCOC(=O)C1(C(=O)OCC)Oc2ccc(C3CCCC(NC[C@H](O)c4cccc(Cl)c4)C3)cc2O1` (stereo partly drawn) [Example 60, (2R)-Diethyl 5-[3-[2-(3-chlorophenyl)-2-hydroxyethylamino]cyclohexyl]benzo-1,3-dioxol-2,2-dicarboxylate] yielded an EC50 at β3 adrenergic receptor [1] of 42 nM.

Turning to `CCOC(=O)COc1ccc(C2CCC(NC[C@H](O)c3cccc(Cl)c3)C2)cc1` (stereo partly drawn) [Example 69, (2R)-Ethyl (4-[3-[2-(3-chlorophenyl)-2-hydroxyethylamino]cyclopentyl]phenoxy)acetate], the half-maximal effective concentration (EC50) at β3 adrenergic receptor [1] came out at 90 nM; on β2 adrenergic receptor, 820 nM. In addition, the EC10 on β1 adrenergic receptor (setting [9]) is more than 30 µM.

Regarding `CC(C)NCC(O)c1ccc(O)c(O)c1` (stereo not shown) [Isoproterenol], the 50% effective concentration (EC50) in [2] was 10 nM.

By EC50 is commonly meant the midpoint of the concentration-response curve. One may read the EC10 as the point of the concentration-response curve where the effect stands at 10%. Broadly, the ED50 is the dose that gives a 50% effect, or the effect in half of the subjects.
